Literature values in patent publication US10966421B2, “Method and device for collecting and preserving cells for analysis” (priority 2002, dated 2021).

Key:
[1] = in vivo
[2] = in vivo; remark: listed apart in the source
[3] = in vivo; remark: listed apart in the source

| Compound | Inhalation Toxicity [1] | Dermal Toxicity [2] | LD50 [3] |
| --- | --- | --- | --- |
| C=O [Formaldehyde, formaldehyde, reference compound] | 500 mg/kg | 270 mg/kg |  |
| O=C(NCO)N(CO)C1(CO)C(=O)NC(=O)N1CO (centres unmarked) [Diazolidinyl urea, diazolidinyl urea] | None | 2000 mg/kg | 2570 mg/kg |
